Laboratory results: ChEMBL document CHEMBL1201862, “PubChem BioAssay data set” (2004)
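Following 48 hours of exposure in 96-well plates, responses at five concentrations were used to interpolate endpoints linearly. At the GI50, growth is halved.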 The source made the active and inactive calls. No stated cut-off is given here; in the data, active = GI50 up to about 1.1 µM and inactive = higher.

Experiments:
Assay in all cases: DTP human tumour cell line panel, 48 h
[1] = tested on: RPMI-8226
[2] = tested on: UACC-62
[3] = tested on: PC-3
[4] = tested on: SK-MEL-5
[5] = tested on: HCC 2998
[6] = tested on: SW-620
[7] = tested on: NCI-H226
[8] = tested on: SK-OV-3
[9] = tested on: Hs-578T
[10] = tested on: TK-10
[11] = tested on: EKVX
[12] = tested on: NCI-H23
[13] = tested on: UO-31
[14] = tested on: SF-268
[15] = tested on: SNB-19
[16] = tested on: U-251
[17] = tested on: SK-MEL-28
[18] = tested on: MOLT-4
[19] = tested on: CAKI-1
[20] = tested on: HOP-92

Measured: GI50

O=C1OC(C2Cc3ccc4c(c3C2=O)CCCC4)c2ccccc21 (stereo not drawn)
inactive: [1] 42.5 µM | [2] 23.7 µM | [3] 26.4 µM | [4] 33.4 µM | [5] 30.8 µM | [6] 29.7 µM | [7] 20.6 µM | [8] 73.6 µM | [9] 18 µM | [10] 73.5 µM | [11] 44.6 µM | [12] 42.7 µM | [13] 50 µM | [14] 49.2 µM | [15] 44.5 µM | [16] 39.6 µM | [17] 52.5 µM | [18] 16.8 µM | [19] 69.3 µM

CCOP(=O)(Cc1nc(C#N)c(N)o1)OCC
inactive: [1] > 100 µM | [2] > 100 µM | [3] > 100 µM | [4] > 100 µM | [5] > 100 µM | [6] > 100 µM | [7] > 100 µM | [8] > 100 µM | [9] > 100 µM | [10] > 100 µM | [11] > 100 µM | [20] > 100 µM | [14] > 100 µM | [15] > 100 µM | [16] > 100 µM | [17] > 100 µM | [18] > 100 µM | [19] > 100 µM

Cc1nc(-c2ccc(Cl)cc2)cn2c1nc1ccccc12
inactive: [1] > 100 µM | [2] > 100 µM | [3] > 100 µM | [4] 5.14 µM | [5] > 100 µM | [6] > 100 µM | [7] > 100 µM | [8] > 100 µM | [9] > 100 µM | [10] > 100 µM | [11] > 100 µM | [20] > 33.1 µM | [12] > 100 µM | [14] > 100 µM | [15] > 100 µM | [16] > 100 µM | [17] > 100 µM | [18] 26.3 µM | [19] > 100 µM

CCSC1=CC(=O)c2nc3ccccc3c3ccnc1c23
inactive: [1] 2.33 µM | [2] 2.05 µM | [3] 2.17 µM | [5] 8.89 µM | [6] 2.68 µM | [7] 10.6 µM | [8] 49 µM | [9] 3.14 µM | [10] 12.1 µM | [11] 2.58 µM | [20] 11.4 µM | [12] 2.64 µM | [13] 5.22 µM | [14] 2.49 µM | [15] 42.2 µM | [16] 3.33 µM | [17] 10.1 µM | [18] 2.64 µM | [19] 3.82 µM

C=C1C[C@@H]2O[C@H]3[C@H]4[C@@H](C[C@@H](C)[C@@H](OC(C)=O)[C@H]42)[C@@H](C)CO[C@@]3(C)[C@H](OC(=O)CCCCCCC)CC1=O
inactive: [1] 2.64 µM | [2] 16.5 µM | [3] 9.82 µM | [4] 15 µM | [5] 17 µM | [6] 15.2 µM | [7] 21.2 µM | [9] 17.1 µM | [10] 17.1 µM | [11] 15.5 µM | [20] > 10 µM | [12] 20.6 µM | [13] 15.6 µM | [14] 18.8 µM | [15] 26.5 µM | [16] 16.8 µM | [17] 14.9 µM | [18] 18.7 µM | [19] 19.4 µM

Cc1cc2c(cc1C)OC(=O)CC2
inactive: [1] > 100 µM | [2] > 100 µM | [3] > 100 µM | [4] > 100 µM | [5] > 100 µM | [6] > 100 µM | [7] > 100 µM | [9] > 100 µM | [10] > 100 µM | [11] > 100 µM | [20] > 100 µM | [12] > 100 µM | [13] > 100 µM | [14] > 100 µM | [16] > 100 µM | [17] > 100 µM | [18] > 100 µM | [19] > 100 µM

CC(C)C(C/C=C1/CC(CO)(COC(=O)C2CCCCC2)OC1=O)C(C)C (stereo not drawn)
inactive: [2] 89.9 µM | [3] 17.1 µM | [4] 18.3 µM | [5] 26.1 µM | [6] 22.3 µM | [7] 21.4 µM | [8] > 100 µM | [9] 16.7 µM | [10] 16.8 µM | [11] 20 µM | [20] 13.6 µM | [12] 16.6 µM | [13] 17.7 µM | [14] 17.6 µM | [15] 15 µM | [16] 18.3 µM | [17] 18.6 µM | [18] 17.8 µM | [19] 15.2 µM

COC(=O)[C@H](COC(=O)/C=C/c1ccc(OC(C)=O)c(OC(C)=O)c1)NC(=O)/C=C/c1ccc(OC(C)=O)c(OC(C)=O)c1
inactive: [1] > 100 µM | [2] 15 µM | [3] 15 µM | [4] 16.4 µM | [5] 17.6 µM | [6] 30.7 µM | [7] 29.2 µM | [8] 22.2 µM | [9] 21.7 µM | [11] 15.5 µM | [20] 22.2 µM | [12] 22.4 µM | [15] 15.8 µM | [16] 29.1 µM | [17] 30.5 µM | [18] > 100 µM | [19] 14 µM
